Data as given in patent US9187487B2, “Azaindole derivatives as tyrosine kinase inhibitors” (PRINCIPIA BIOPHARMA, INC., priority 2011, dated 2015).

Target: recombinant JAK3 (catalytic domain, aa 781-1124) (Homo sapiens (Human), UniProt P52333)
Experiment: JAK3 Caliper Peptide Phosphorylation Assay
Assay type: biochemical
Conditions: fluorescently labeled Srctide substrate 1 uM; ATP at 1×Km (2 uM); 2 hours at 25° C.
Experimental: JAK3 Caliper Peptide Phosphorylation Assay
Phosphorylation of the appropriate peptide substrate (fluorescently labeled Srctide) by recombinant JAK3 (catalytic domain, aa 781-1124) was measured in the presence and absence of different concentrations of test compounds. Test compound, enzyme, fluorescently labeled substrate, and cofactors (ATP and Mg^2+) were combined in a well of a microtiter plate and incubated for 2 hours at 25° C. The composition of the reaction buffer was 100 mM HEPES pH 7.5, 5 mM MgCl2, 0.01% Triton-X 100, 0.1% Bovine Serum Albumin, and 1% DMSO. Enzyme concentration in the final reaction mixture was 0.5 nM while peptide substrate was at 1 uM. ATP was used at 1×Km concentration corresponding to 2 uM. Serial dilutions (3-fold steps) of compounds were prepared in DMSO. At the end of the incubation, the reaction was stopped by the addition of 20 mM EDTA. Substrate and product (i.e. phosphorylated substrate) were separated electrophoretically and both were quantified by fluorescence intensity using the microfluidics-based LabChip 3000 Drug Discovery System from Caliper Life Sciences. Conversion for each well was calculated and plotted as function of test compound concentration. IC50 value was determined by fitting the data to a 4-parameter logistic model by non-linear regression (XLfit model 205). In every assay, Staurosporine was tested in the same manner as reference compound. Selectivity for JAK3 was determined using commercially available kinase cross-screening services (DiscoveRx, San Diego, Calif.).

Sequence of recombinant JAK3 (catalytic domain, aa 781-1124) (P52333 781-1124): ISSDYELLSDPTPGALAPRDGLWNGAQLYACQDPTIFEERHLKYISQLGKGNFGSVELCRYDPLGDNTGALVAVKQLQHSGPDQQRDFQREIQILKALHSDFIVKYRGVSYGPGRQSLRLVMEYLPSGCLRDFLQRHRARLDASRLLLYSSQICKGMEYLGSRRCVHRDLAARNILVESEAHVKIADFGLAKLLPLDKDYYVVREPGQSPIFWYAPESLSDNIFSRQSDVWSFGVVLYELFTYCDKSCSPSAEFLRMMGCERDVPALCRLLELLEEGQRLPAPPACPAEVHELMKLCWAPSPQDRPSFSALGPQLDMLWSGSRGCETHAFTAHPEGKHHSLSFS

| IC50 [nM] | Structure (SMILES) |
| --- | --- |
| > 1000 | CN(C)C(=O)C(C#N)=Cc1cccc(Oc2ncnc3[nH]ccc23)c1 [compound 11, 3-(3-((7H-pyrrolo[2,3-d]pyrimidin-4-yl)oxy)phenyl)-2-cyano-N,N-dimethylacrylamide] |
| 0.2 | CC(C)NC(=O)c1c[nH]c2ncc(Nc3ccc(C=C(C#N)C(=O)N4CCNCC4)cc3)nc12 [compound 83, 2-((4-(2-cyano-3-oxo-3-(piperazin-1-yl)prop-1-en-1-yl)phenyl)amino)-N-isopropyl-5H-pyrrolo[2,3-b]pyrazine-7-carboxamide] |
| 0.2 | CN(C)C(=O)C(C#N)=Cc1ccc(Nc2cnc3[nH]cc(C(=O)NC(C)(C)C)c3n2)cc1 [compound 71, N-(tert-butyl)-2-((4-(2-cyano-3-(dimethylamino)-3-oxoprop-1-en-1-yl)phenyl)amino)-5H-pyrrolo[2,3-b]pyrazine-7-carboxamide] |
| 2200 | COc1c(C=C(C#N)C(=O)N(C)C)cccc1Nc1ncnc2[nH]ccc12 [compound 15, 3-(3-((7H-pyrrolo[2,3-d]pyrimidin-4-yl)amino)-2-methoxyphenyl)-2-cyano-N,N-dimethylacrylamide] |
| 0.2 | CN1CCN(C(=O)C(C#N)=Cc2ccc(Nc3cnc4[nH]cc(C(=O)C(C)(C)C)c4n3)cc2)CC1 [compound 64, 2-(4-methylpiperazine-1-carbonyl)-3-(4-(7-pivaloyl-5H-pyrrolo[2,3-b]pyrazin-2-ylamino)phenyl)acrylonitrile] |
| 104 | CN(C)C(=O)C(C#N)=Cc1cccc(-c2cnc3[nH]cc(C(=O)C(C)(C)C)c3n2)c1 [compound 97, 2-cyano-N,N-dimethyl-3-(3-(7-pivaloyl-5H-pyrrolo[2,3-b]pyrazin-2-yl)phenyl)acrylamide] |
| > 5000 | CN(C)C(=O)C(C#N)=Cc1cccc(Oc2cnc3[nH]cc(C(=O)C(C)(C)C)c3n2)c1 [compound 100, 2-cyano-N,N-dimethyl-3-(3-((7-pivaloyl-5H-pyrrolo[2,3-b]pyrazin-2-yl)oxy)phenyl)acrylamide] |
| 1770 | CN(C)C(=O)C(C#N)=Cc1cc(Nc2ncnc3[nH]ccc23)ccc1Cl [compound 17, 3-(5-((7H-pyrrolo[2,3-d]pyrimidin-4-yl)amino)-2-chlorophenyl)-2-cyano-N,N-dimethylacrylamide] |
| 0.9 | CN(C)C(=O)C(C#N)=Cc1ccc(Nc2cnc3[nH]cc(C(=O)C(C)(C)C)c3n2)cn1 [compound 70, 2-cyano-N,N-dimethyl-3-(5-((7-pivaloyl-5H-pyrrolo[2,3-b]pyrazin-2-yl)amino)pyridin-2-yl)acrylamide] |
| > 5000 | Cc1ccc(Nc2ncnc3[nH]ccc23)cc1C=C(C#N)C(=O)N(C)C [compound 19, 3-(5-((7H-pyrrolo[2,3-d]pyrimidin-4-yl)amino)-2-methylphenyl)-2-cyano-N,N-dimethylacrylamide] |
| 3 | CC(C)(C)C(=O)c1c[nH]c2ncc(Nc3ccc(C=C4SC(=O)N(CCN)C4=O)cc3)nc12 [compound 89, 3-(2-aminoethyl)-5-(4-((7-pivaloyl-5H-pyrrolo[2,3-b]pyrazin-2-yl)amino)benzylidene)thiazolidine-2,4-dione] |
| 38.3 | CC(C)(C)C(=O)c1c[nH]c2ncc(Nc3ccc(C=C(C#N)c4nccs4)cc3)nc12 [compound 82, 3-(4-((7-pivaloyl-5H-pyrrolo[2,3-b]pyrazin-2-yl)amino)phenyl)-2-(thiazol-2-yl)acrylonitrile] |
| 345 | CC(C)(C)C(=O)c1c[nH]c2ncc(-c3cccc(NC(=O)C(C#N)=CC4CC4)c3)nc12 [compound 102, 2-cyano-3-cyclopropyl-N-(3-(7-pivaloyl-5H-pyrrolo[2,3-b]pyrazin-2-yl)phenyl)acrylamide] |
| 280 | CN(C)C(=O)C(C#N)=Cc1ccc(Oc2ncnc3[nH]ccc23)cc1 [compound 12, 3-(4-((7H-pyrrolo[2,3-d]pyrimidin-4-yl)oxy)phenyl)-2-cyano-N,N-dimethylacrylamide] |
| 33.5 | CCN1C(=O)SC(=Cc2ccc(Nc3cnc4[nH]cc(C(=O)C(C)(C)C)c4n3)cc2)C1=O [compound 78, 3-ethyl-5-(4-((7-pivaloyl-5H-pyrrolo[2,3-b]pyrazin-2-yl)amino)benzylidene)thiazolidine-2,4-dione] |
| 320 | CN(C)C(=O)C(C#N)=Cc1ccc(Oc2cnc3[nH]ccc3n2)cc1 [compound 32, 3-(4-((5H-pyrrolo[2,3-b]pyrazin-2-yl)oxy)phenyl)-2-cyano-N,N-dimethylacrylamide] |
| 1 | CCNC(=O)C(C#N)=Cc1ccc(Nc2cnc3[nH]cc(C(=O)C(C)(C)C)c3n2)cc1 [compound 77, 2-cyano-3-(4-((7-pivaloyl-5H-pyrrolo[2,3-b]pyrazin-2-yl)amino)phenyl)-N-ethylacrylamide] |
| > 1000 | CN(C)C(=O)C(C#N)=Cc1cccc(-c2cnc3[nH]ccc3n2)c1 [compound 27, 3-(3-(5H-pyrrolo[2,3-b]pyrazin-2-yl)phenyl)-2-cyano-N,N-dimethylacrylamide] |
| 5.5 | CN(C(=O)C(C#N)=Cc1ccc(Nc2cnc3[nH]cc(C(=O)C(C)(C)C)c3n2)cc1)c1ccccc1 [compound 85, 2-cyano-N-methyl-N-phenyl-3-(4-((7-pivaloyl-5H-pyrrolo[2,3-b]pyrazin-2-yl)amino)phenyl)-acrylamide] |
| 1150 | CC(C)NC(=O)c1c[nH]c2ncc(Oc3cccc(C=C(C#N)C(=O)N(C)C)c3)nc12 [compound 51, 2-(3-(2-cyano-3-(dimethylamino)-3-oxoprop-1-en-1-yl)phenoxy)-N-isopropyl-5H-pyrrolo[2,3-b]pyrazine-7-carboxamide] |
| 0.7 | CN(C)C(=O)C(C#N)=Cc1ccc(Nc2cnc3[nH]cc(C(=O)C(C)(C)C)c3n2)cc1F [compound 66, 2-cyano-3-(2-fluoro-4-((7-pivaloyl-5H-pyrrolo[2,3-b]pyrazin-2-yl)amino)phenyl)-N,N-dimethylacrylamide] |
| 3 | CN(C)CCN1C(=O)SC(=Cc2ccc(Nc3cnc4[nH]cc(C(=O)C(C)(C)C)c4n3)cc2)C1=O [compound 88, 3-(2-(dimethylamino)ethyl)-5-(4-((7-pivaloyl-5H-pyrrolo[2,3-b]pyrazin-2-yl)amino)-benzylidene)thiazolidine-2,4-dione] |
| 0.2 | CC(C)NC(=O)c1c[nH]c2ncc(Nc3ccc(C=C(C#N)C(=O)N(C)C)cc3)nc12 [compound 50, 2-((4-(2-cyano-3-(dimethylamino)-3-oxoprop-1-en-1-yl)phenyl)amino)-N-isopropyl-5H-pyrrolo[2,3-b]pyrazine-7-carboxamide] |
| 150 | CN(C)C(=O)C(C#N)=Cc1cccc(Nc2ncnc3[nH]ccc23)c1 [compound 3, 3-(3-((7H-pyrrolo[2,3-d]pyrimidin-4-yl)amino)-phenyl)-2-cyano-N,N-dimethylacrylamide] |
| 680 | CN(C)C(=O)C(C#N)=Cc1ccc(-c2cnc3[nH]cc(C(=O)C(C)(C)C)c3n2)cc1 [compound 96, 2-cyano-N,N-dimethyl-3-(4-(7-pivaloyl-5H-pyrrolo[2,3-b]pyrazin-2-yl)phenyl)acrylamide] |
| > 1000 | CN(C)C(=O)C(C#N)=Cc1ccc(N(C)c2ncnc3[nH]ccc23)cc1 [compound 7, 2-cyano-N,N-dimethyl-3-(4-(methyl(7H-pyrrolo[2,3-d]pyrimidin-4-yl)amino)phenyl)acrylamide] |
